In ChEMBL document CHEMBL4330059, “Discovery of N1-(4-((7-(3-(4-ethylpiperazin-1-yl)propoxy)-6-methoxyquinolin-4-yl)oxy)-3,5-difluorophenyl)-N3-(2-(2,6-difluorophenyl)-4-oxothiazolidin-3-yl)urea as a multi-tyrosine kinase inhibitor for drug-sensitive and drug-resistant cancers treatment” (Eur J Med Chem, 2019):
The source made the active and inactive calls. The rule behind the calls is not given here.

Key:
A549 = test: Antiproliferative activity against human A549 cells after 72 hrs by MTT assay; type: functional, cell-based; conditions: A549, 72 h
HT-29 [1] = test: Antiproliferative activity against human HT-29 cells after 72 hrs by MTT assay; type: functional, cell-based; conditions: HT-29, 72 h
MDA-MB-231 = test: Antiproliferative activity against human MDA-MB-231 cells after 72 hrs by MTT assay; type: functional, cell-based; conditions: MDA-MB-231, 72 h
A549/CDDP = test: Antiproliferative activity against human A549/CDDP cells after 72 hrs by MTT assay; type: functional, cell-based
MCF7 = test: Antiproliferative activity against human MCF7 cells after 72 hrs by MTT assay; type: functional, cell-based; conditions: MCF7, 72 h
[2] = Antiproliferative activity against human MCF7/DX cells after 72 hrs by MTT assay; type: functional, cell-based
HT-29 [3] = test: Antiproliferative activity against human HT-29 cells after 72 hrs by IncuCyte live-cell imaging assay; type: functional, cell-based
HT-29 [4] = test: Antiproliferative activity against human HT-29 cells assessed as cell confluence level at 10 ug/ml after 72 hrs by IncuCyte live-cell imaging assay (reference value: 87.5%); type: functional
HT-29 [5] = test: Antiproliferative activity against human HT-29 cells assessed as cell confluence level at 0.37 ug/ml after 0 to 12 hrs by IncuCyte live-cell imaging assay (reference value: 87.5%); type: functional
HT-29 [6] = test: Cytotoxicity against human HT-29 cells assessed as increase in dead cells after 72 hrs by yoyo-1 dye-based fluorescence assay; type: functional, cell-based
HT-29 [7] = test: Cytotoxicity against human HT-29 cells assessed as increase in dead cells at 3.33 ug/mL up to 72 hrs by yoyo-1 dye-based fluorescence assay; type: functional, cell-based
HT-29 [8] = test: Cytotoxicity against human HT-29 cells assessed as increase in dead cells at 0.01 ug/mL after 72 hrs by yoyo-1 dye-based fluorescence assay; type: functional, cell-based
HT-29 [9] = test: Induction of apoptosis in human HT-29 cells assessed as early apoptotic cells at 0.1 ug/mL after 72 hrs by Annexin V-FITC/propidium iodide staining-based flow cytometric analysis (reference value: 0%); type: functional
HT-29 [10] = test: Induction of apoptosis in human HT-29 cells assessed as late apoptotic cells at 0.1 ug/mL after 72 hrs by Annexin V-FITC/propidium iodide staining-based flow cytometric analysis (reference value: 0.1%); type: functional
HT-29 [11] = test: Induction of apoptosis in human HT-29 cells assessed as early apoptotic cells at 0.3 ug/mL after 72 hrs by Annexin V-FITC/propidium iodide staining-based flow cytometric analysis (reference value: 0%); type: functional
HT-29 [12] = test: Induction of apoptosis in human HT-29 cells assessed as late apoptotic cells at 0.3 ug/mL after 72 hrs by Annexin V-FITC/propidium iodide staining-based flow cytometric analysis (reference value: 0.1%); type: functional
HT-29 [13] = test: Induction of apoptosis in human HT-29 cells assessed as early apoptotic cells at 1 ug/mL after 72 hrs by Annexin V-FITC/propidium iodide staining-based flow cytometric analysis (reference value: 0%); type: functional
HT-29 [14] = test: Induction of apoptosis in human HT-29 cells assessed as late apoptotic cells at 1 ug/mL after 72 hrs by Annexin V-FITC/propidium iodide staining-based flow cytometric analysis (reference value: 0.1%); type: functional
HT-29 [15] = test: Induction of apoptosis in human HT-29 cells assessed as early apoptotic cells at 3 ug/mL after 72 hrs by Annexin V-FITC/propidium iodide staining-based flow cytometric analysis (reference value: 0%); type: functional
HT-29 [16] = test: Induction of apoptosis in human HT-29 cells assessed as late apoptotic cells at 3 ug/mL after 72 hrs by Annexin V-FITC/propidium iodide staining-based flow cytometric analysis (reference value: 0.1%); type: functional
HT-29 [17] = test: Induction of apoptosis in human HT-29 cells after 72 hrs by Annexin V-FITC/propidium iodide staining-based flow cytometric analysis; type: functional, cell-based
HT-29 [18] = test: Antimigratory activity against human HT-29 cells at 3.33 ug/mL after 48 to 72 hrs by wound healing assay; type: functional, cell-based
[19] = molecular target: T1, Hepatocyte growth factor receptor (Homo sapiens, UniProt P08581); test: Inhibition of c-Met (unknown origin) using FAM-labelled peptide and ATP incubated for 10 mins by mobility shift assay
T1 sequence (P08581 whole entry): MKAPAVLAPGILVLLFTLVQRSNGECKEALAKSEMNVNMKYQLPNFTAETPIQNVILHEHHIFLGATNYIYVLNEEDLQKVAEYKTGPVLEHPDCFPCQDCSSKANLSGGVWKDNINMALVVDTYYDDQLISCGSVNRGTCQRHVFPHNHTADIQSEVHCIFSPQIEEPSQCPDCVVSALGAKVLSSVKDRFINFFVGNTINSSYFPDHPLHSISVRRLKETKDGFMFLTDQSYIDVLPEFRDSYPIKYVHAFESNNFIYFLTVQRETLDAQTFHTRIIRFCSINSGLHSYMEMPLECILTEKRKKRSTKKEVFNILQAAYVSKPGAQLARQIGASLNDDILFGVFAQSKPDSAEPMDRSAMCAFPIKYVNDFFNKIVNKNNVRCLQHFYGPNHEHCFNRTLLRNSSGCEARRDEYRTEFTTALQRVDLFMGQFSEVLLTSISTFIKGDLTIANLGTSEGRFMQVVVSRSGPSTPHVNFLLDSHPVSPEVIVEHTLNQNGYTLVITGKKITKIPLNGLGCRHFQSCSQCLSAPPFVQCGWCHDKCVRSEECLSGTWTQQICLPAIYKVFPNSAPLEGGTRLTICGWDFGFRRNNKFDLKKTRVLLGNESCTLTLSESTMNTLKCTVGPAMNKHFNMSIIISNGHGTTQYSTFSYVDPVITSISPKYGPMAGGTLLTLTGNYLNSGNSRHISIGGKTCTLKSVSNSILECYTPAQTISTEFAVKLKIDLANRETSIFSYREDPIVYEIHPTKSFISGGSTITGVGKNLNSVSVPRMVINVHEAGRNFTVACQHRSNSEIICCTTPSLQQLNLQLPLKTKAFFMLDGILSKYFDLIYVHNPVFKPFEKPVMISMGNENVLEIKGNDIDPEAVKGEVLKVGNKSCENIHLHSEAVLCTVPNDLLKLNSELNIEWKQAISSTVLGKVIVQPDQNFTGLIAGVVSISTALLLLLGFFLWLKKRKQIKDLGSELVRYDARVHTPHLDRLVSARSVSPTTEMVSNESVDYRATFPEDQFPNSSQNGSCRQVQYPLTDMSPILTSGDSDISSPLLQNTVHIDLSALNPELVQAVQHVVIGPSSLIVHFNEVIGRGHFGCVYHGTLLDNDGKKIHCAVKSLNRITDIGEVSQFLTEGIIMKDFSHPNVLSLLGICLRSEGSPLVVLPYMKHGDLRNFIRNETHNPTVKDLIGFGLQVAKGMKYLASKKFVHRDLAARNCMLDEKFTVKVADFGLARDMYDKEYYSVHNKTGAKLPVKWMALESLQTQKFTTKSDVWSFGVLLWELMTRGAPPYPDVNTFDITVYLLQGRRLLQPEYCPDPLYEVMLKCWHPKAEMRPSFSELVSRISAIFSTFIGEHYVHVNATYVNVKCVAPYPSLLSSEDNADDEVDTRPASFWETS

[20] = molecular target: Macrophage-stimulating protein receptor (Homo sapiens, UniProt Q04912); test: Inhibition of Ron (unknown origin) using FAM-labelled peptide and ATP incubated for 10 mins by mobility shift assay
[21] = molecular target: Mast/stem cell growth factor receptor Kit (Homo sapiens, UniProt P10721); test: Inhibition of c-Kit (unknown origin) using FAM-labelled peptide and ATP incubated for 10 mins by mobility shift assay
[22] = molecular target: Vascular endothelial growth factor receptor 2 (Homo sapiens, UniProt P35968); test: Inhibition of KDR (unknown origin) using FAM-labelled peptide and ATP incubated for 10 mins by mobility shift assay
Chain of Vascular endothelial growth factor receptor 2 (P35968 whole entry): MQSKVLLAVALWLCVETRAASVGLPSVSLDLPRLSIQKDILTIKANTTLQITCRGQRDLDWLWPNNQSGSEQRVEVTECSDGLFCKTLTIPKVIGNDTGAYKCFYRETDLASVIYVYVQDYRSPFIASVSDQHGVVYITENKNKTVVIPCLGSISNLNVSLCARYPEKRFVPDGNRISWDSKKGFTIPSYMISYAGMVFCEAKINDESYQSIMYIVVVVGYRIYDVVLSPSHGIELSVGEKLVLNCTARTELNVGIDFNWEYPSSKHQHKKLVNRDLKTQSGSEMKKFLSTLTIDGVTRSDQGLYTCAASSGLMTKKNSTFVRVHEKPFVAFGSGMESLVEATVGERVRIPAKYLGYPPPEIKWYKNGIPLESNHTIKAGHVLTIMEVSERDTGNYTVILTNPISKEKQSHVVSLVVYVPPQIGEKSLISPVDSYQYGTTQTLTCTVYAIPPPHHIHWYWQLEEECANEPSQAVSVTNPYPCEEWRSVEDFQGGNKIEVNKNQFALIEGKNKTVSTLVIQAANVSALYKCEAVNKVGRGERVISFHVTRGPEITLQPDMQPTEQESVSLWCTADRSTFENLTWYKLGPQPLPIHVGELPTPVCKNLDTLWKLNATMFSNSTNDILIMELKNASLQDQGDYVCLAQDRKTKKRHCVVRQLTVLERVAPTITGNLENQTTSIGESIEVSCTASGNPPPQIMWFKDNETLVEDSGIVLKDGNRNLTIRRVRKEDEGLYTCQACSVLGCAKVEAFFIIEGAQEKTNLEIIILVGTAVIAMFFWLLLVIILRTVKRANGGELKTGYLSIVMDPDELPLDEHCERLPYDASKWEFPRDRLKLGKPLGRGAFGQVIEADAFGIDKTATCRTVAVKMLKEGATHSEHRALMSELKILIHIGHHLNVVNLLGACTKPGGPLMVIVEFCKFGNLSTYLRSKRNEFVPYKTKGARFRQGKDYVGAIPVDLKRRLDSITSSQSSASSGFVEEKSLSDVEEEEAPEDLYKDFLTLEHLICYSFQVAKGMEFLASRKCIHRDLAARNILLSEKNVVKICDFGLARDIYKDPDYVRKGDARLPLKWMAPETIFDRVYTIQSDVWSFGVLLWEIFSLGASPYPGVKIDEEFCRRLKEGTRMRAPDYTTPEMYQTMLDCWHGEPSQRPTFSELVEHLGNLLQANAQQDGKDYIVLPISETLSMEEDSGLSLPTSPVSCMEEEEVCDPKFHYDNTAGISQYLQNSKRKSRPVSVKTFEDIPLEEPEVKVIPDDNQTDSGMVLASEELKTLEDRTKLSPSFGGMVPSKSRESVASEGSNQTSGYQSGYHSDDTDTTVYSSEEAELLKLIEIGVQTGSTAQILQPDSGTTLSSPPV

[23] = molecular target: Receptor tyrosine-protein kinase erbB-2 (Homo sapiens, UniProt P04626); test: Inhibition of HER-2 (unknown origin) using FAM-labelled peptide and ATP incubated for 10 mins by mobility shift assay
[24] = molecular target: ALK tyrosine kinase receptor (Homo sapiens, UniProt Q9UM73); test: Inhibition of ALK (unknown origin) using FAM-labelled peptide and ATP incubated for 10 mins by mobility shift assay
Chain of ALK tyrosine kinase receptor (Q9UM73 whole entry): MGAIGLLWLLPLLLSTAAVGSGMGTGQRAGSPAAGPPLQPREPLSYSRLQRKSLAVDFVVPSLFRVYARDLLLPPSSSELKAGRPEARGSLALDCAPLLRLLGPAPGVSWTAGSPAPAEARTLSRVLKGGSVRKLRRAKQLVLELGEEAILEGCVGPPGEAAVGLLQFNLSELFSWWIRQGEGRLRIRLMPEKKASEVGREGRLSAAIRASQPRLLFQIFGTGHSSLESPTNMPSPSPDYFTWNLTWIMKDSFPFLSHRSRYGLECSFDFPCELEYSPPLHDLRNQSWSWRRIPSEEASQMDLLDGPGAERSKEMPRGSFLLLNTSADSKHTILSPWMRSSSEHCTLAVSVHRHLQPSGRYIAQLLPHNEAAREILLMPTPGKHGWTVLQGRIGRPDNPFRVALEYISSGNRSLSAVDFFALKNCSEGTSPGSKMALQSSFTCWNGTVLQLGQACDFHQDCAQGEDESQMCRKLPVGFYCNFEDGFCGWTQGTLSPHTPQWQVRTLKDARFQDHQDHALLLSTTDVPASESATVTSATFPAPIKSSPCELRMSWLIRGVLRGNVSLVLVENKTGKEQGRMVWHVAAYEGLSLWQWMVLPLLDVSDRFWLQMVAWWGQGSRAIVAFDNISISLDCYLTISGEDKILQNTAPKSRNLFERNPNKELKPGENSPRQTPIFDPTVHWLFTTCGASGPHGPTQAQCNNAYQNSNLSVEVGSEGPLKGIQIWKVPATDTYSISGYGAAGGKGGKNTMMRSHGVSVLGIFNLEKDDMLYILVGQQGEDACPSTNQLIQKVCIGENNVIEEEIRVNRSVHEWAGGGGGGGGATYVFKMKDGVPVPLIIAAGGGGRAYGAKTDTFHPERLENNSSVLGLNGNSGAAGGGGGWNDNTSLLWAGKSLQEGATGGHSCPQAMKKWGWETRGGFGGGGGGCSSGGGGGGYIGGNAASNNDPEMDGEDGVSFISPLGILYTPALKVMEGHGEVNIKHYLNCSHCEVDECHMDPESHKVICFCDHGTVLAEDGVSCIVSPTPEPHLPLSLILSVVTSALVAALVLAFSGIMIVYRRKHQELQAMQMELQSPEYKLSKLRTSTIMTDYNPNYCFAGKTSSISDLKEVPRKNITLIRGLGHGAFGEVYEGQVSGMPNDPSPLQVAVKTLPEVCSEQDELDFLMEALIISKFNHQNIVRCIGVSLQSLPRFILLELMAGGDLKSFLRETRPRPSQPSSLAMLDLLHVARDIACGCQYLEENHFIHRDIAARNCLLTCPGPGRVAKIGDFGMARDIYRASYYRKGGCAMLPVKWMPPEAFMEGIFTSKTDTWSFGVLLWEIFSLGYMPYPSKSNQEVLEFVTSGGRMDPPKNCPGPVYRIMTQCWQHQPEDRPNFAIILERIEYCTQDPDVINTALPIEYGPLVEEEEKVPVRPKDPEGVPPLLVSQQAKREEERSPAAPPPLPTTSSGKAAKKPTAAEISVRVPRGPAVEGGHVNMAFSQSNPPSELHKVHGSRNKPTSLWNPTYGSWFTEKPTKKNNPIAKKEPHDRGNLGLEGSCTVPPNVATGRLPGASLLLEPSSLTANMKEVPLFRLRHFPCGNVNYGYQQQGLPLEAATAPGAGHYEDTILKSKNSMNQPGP

[25] = molecular target: Proto-oncogene tyrosine-protein kinase Src (Homo sapiens, UniProt P12931); test: Inhibition of c-Src (unknown origin) using FAM-labelled peptide and ATP incubated for 10 mins by mobility shift assay
Chain of Proto-oncogene tyrosine-protein kinase Src (P12931 2-536 limits assumed): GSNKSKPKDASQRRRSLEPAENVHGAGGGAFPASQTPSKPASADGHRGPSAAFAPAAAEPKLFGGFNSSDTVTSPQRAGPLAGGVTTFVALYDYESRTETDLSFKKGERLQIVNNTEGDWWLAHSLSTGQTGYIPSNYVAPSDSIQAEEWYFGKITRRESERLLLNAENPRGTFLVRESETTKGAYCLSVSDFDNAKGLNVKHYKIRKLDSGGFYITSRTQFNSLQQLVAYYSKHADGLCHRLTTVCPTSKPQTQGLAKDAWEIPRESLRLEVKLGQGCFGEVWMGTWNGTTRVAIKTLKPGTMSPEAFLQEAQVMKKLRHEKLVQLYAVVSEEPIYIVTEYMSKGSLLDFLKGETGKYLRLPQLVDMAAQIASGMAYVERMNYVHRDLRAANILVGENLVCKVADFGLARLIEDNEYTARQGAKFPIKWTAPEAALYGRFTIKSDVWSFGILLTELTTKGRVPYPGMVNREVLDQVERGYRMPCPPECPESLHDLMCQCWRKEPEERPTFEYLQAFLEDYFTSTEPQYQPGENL

[26] = molecular target: Insulin-like growth factor 1 receptor (Homo sapiens, UniProt P08069); test: Inhibition of IGF-1R (unknown origin) using FAM-labelled peptide and ATP incubated for 10 mins by mobility shift assay
[27] = molecular target: Epidermal growth factor receptor (Homo sapiens, UniProt P00533); test: Inhibition of EGFR (unknown origin) using FAM-labelled peptide and ATP incubated for 10 mins by mobility shift assay
[28] = molecular target: T2, Tyrosine-protein kinase receptor UFO (Homo sapiens, UniProt P30530); test: Inhibition of AXL (unknown origin) using FAM-labelled peptide and ATP incubated for 10 mins by mobility shift assay
T2 sequence (P30530 whole entry): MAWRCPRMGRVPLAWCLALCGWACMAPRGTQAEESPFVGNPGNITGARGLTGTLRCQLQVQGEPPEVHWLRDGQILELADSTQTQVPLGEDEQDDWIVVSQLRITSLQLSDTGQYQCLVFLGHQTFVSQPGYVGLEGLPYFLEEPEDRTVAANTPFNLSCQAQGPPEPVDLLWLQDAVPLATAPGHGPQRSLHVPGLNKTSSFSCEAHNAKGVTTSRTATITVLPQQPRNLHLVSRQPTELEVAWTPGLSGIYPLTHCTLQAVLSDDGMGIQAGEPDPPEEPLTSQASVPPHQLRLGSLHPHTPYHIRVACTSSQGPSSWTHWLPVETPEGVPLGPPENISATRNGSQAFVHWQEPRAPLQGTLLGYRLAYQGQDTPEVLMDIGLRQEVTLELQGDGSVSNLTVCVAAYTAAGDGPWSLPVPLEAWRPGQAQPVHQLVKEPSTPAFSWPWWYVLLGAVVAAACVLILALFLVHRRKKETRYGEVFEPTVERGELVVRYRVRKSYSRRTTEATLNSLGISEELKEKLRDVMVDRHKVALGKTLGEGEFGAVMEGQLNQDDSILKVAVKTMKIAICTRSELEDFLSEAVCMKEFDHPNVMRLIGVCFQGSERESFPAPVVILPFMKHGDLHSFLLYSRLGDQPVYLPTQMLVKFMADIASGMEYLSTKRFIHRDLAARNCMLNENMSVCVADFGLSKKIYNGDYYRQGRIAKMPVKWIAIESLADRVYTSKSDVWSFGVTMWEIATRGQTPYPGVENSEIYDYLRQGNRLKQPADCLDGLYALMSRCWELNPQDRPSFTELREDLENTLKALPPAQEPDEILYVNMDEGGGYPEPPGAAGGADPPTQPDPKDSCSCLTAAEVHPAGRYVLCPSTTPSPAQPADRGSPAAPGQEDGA

[29] = molecular target: T1, Hepatocyte growth factor receptor; test: Inhibition of c-Met phosphorylation in human HT-29 cells at 3 ug/mL after 72 hrs by Western blot analysis; type: cell-based
[30] = molecular target: T1, Hepatocyte growth factor receptor; test: Inhibition of c-Met in human HT-29 cells assessed as decrease in Akt phosphorylation at 3 ug/mL after 72 hrs by Western blot analysis; type: cell-based
[31] = molecular target: T1, Hepatocyte growth factor receptor; test: Inhibition of c-Met in human HT-29 cells assessed as decrease in ERK1/2 phosphorylation at 3 ug/mL after 72 hrs by Western blot analysis; type: cell-based
FHC = test: Cytotoxicity against human FHC cells after 72 hrs by MTT assay; type: cell-based
[32] = Selectivity index, ratio of IC50 for human FHC cells to IC50 for human HT-29 cells; type: toxicity; conditions: FHC cells and HT-29 cells, read-out: Ratio IC50
HT-29 [33] = test: Antimigratory activity against human HT-29 cells at <3.33 ug/mL after 48 to 72 hrs by wound healing assay; type: functional, cell-based

- IC50 (A549): 350 nM
- IC50 (HT-29 [1]): 73 nM
- IC50 (MDA-MB-231): 3100 nM
- IC50 (A549/CDDP): 630 nM
- IC50 (MCF7): 1500 nM
- IC50 [19]: 15 nM
- IC50 [20]: 2.9 nM
- IC50 [21]: 64 nM
- IC50 [22]: 850 nM
- IC50 [23]: > 10000 nM
- IC50 [24]: > 10000 nM
- IC50 [25]: 240 nM
- IC50 [26]: 2100 nM
- IC50 [27]: 520 nM
- IC50 [28]: 53 nM
- inhibition [29]: Active
- inhibition [30]: Active
- inhibition [31]: Active
SMILES: CCN1CCN(CCCOc2cc3nccc(Oc4c(F)cc(NC(=O)NN5C(=O)CSC5c5c(F)cccc5F)cc4F)c3cc2OC)CC1 (stereo not drawn)
- IC50 [2]: 3800 nM
- Activity (HT-29 [3]): Dose-dependent effect
- Activity (HT-29 [4]): 24.3%
- Activity (HT-29 [5]): 63.6%
- Activity (HT-29 [6]): Dose-dependent effect
- Activity (HT-29 [7]): Active
- Activity (HT-29 [8]): Active
- Activity (HT-29 [9]): 17.4%
- Activity (HT-29 [10]): 9.9%
- Activity (HT-29 [11]): 55.1%
- Activity (HT-29 [12]): 9.6%
- Activity (HT-29 [13]): 70.2%
- Activity (HT-29 [14]): 11%
- Activity (HT-29 [15]): 74.5%
- Activity (HT-29 [16]): 10.3%
- Activity (HT-29 [17]): Dose-dependent effect
- Activity (HT-29 [18]): Active
- IC50 (FHC): 1180 nM
- selectivity ratio [32]: 16.2
- Activity (HT-29 [33]): inactive
